The record followed here is patent US20240262844A1, “PYRIDINIUM SALTS AND METHODS OF USE” (UNIVERSITY OF WYOMING, priority 2023, published 2024).

Molecules are shown by their SMILES. Entries after “also recorded” stand apart in the source; their conditions may differ. Where a name gives a salt, the structure may show the parent alone.

For this data set, the system named is HEK293T lysates. Description: Chemoproteomic profiling of HEK293T lysates (protein-level enrichment). Format: biochemical, Human. As to the method: In lysate tryptophan probe treatment for protein-level characterization: HEK293T cell pellets were suspended in native lysis buffer (50 mM HEPES pH 7.5, 150 mM sodium chloride (NaCl), 1.5 mM MgCl2, 1 mM DTT, 0.8% NP-40, 5% glycerol, and 1x protease inhibitors (Thermo)) at 2x the pellet volume. The samples were sonicated on ice for 30 seconds at 20% amplitude with a 2 second pulse ON and 3 second pulse OFF. Cell debris was removed by centrifugation at 20,000×g for 20 minutes at 4° C. Protein concentration was determined by bicinchoninic acid (BCA) (Pierce) and diluted down to 5 mg/mL with ChemProt buffer (50 mM HEPES pH 7.5, 150 mM NaCl, 1.5 mM MgCl2, 1 mM DTT, 0.4% NP-40, and 1x protease inhibitors (Thermo). 5 mg cell lysates were treated with 100x stocks of the tryptophan probes (pyridinium salts 1a, 1b, and 2b) to generate final concentrations (0, 1, 10, and 100 μM) in 1% DMSO. Lysates were incubated for 1 hour at 4° C. followed by photo-activation at respective wavelengths for 20 minutes at 4° C. Excess probe was removed using Sephadex G-25 PD-10 desalting columns (GE Healthcare) pre-equilibrated with 50 mM HEPES pH 7.5, 150 mM NaCl, 1.5 mM MgCl2, and 0.4% NP-40. The samples were then treated with 100 μL Neutravidin resin as a 50% slurry (Peirce). The samples were incubated overnight on a rotating apparatus at R.T. The following day, the beads were transferred to a MobiCol column (Boca Scientific), washed 3× with phosphate buffered saline (PBS) containing 0.2% SDS, washed 3x with PBS, and the enriched proteins were eluted with 2×NuPAGE lithium dodecyl sulfate (LDS) containing 10 mM DTT (Pierce) and heated for 30 minutes at 55° C. The eluent was collected and subsequently treated with 20 mM iodoacetamide (Pierce) for 30 minutes at R.T. protected from light. Samples were passed through detergent removal columns (Pierce) that were pre-equilibrated with 50 mM HEPES pH 8.0. The samples were treated with 2.5 μg Trypsin/LysC (Promega) at 37° C. for 16 hours. The following day, the sample was collected and prepped for isobaric labeling with TMT reagents (Thermo) as specified by the manufacturer.
Quantitative proteomics by two-dimensional nano liquid chromatography-tandem mass spectrometry (nLC-MS/MS): For protein-level characterization, the TMT-labeled sample were reconstituted in 0.1% formic acid (FA)/2% acetonitrile for offline high-pH reversed phase separation (RP10) using a Dionex UltiMate 3000 high-performance liquid chromatography (HPLC) system with fraction collection using Chromeleon v.6.8 (Thermo) software. Separation was achieved on a Waters Xbridge C18 3.5 μm 2.1×150 mm HPLC column (Waters) using a flow rate of 250 μL min-1 and the following ternary gradient and conditions: mobile phase A=water (HPLC grade), mobile phase B=acetonitrile (HPLC grade), and mobile phase C=200 mM ammonium acetate, pH 10. Mobile phase C is held at 10% throughout gradient. Starting conditions are 89% mobile phase A and 1% mobile phase B, ramping mobile phase B to 80% over 65 min. Fractions were collected in 96-well plates at 100 see per well. Fractions were reduced down to 12 fractions, dried, and reconstituted in 0.1% FA/2% acetonitrile for nLC-MS/MS. All data were acquired using a Orbitrap Fusion Lumos coupled to an Easy-nLC 1200 nanoflow liquid chromatograph operating at 300 nL min^−1. Peptides were cleaned up using a 1 cm online custom trap then eluted on a custom 20 cm laser pulled 75 μm column with C18 resin. Peptides were quantified using the synchronous precursor selection (SPS-MS3) or HCD method for TMT quantitation with 120k MS1 resolving power, 50 ms max injection time and 100% AGC. MS2 spectra were selected using the top ten most abundant features with a charge state between 2-6 using CID (collision induced dissociation) in the ion trap. The AGC was set to 100% with an isolation width of 0.7. MS3 was performed on the top 10 most abundant MS2 features between 400-1600 amu with a collision energy of 55%, AGC of 250%, and 50k resolution. […]

For the compound `COc1ccc2cc(-c3cc(C)[n+](N(C)C(=O)OCCCCC[C@H]4SC[C@H]5NC(=O)N[C@H]54)c(C)c3)ccc2c1` (stereo in doubt) [Pyridinium salt 2b, 4-(6-methoxynaphthalen-2-yl)-2,6-dimethyl-1-(methyl(((5-((3aR,4R,6aS)-2-oxohexahydro-1H-thieno[3,4-d]imidazol-4-yl)pentyl)oxy)carbonyl)amino)pyridin-1-ium tetrafluoroborate], under “0-100 μM probe, with and without irradiation, before digestion”, the “proteome labeling profile, streptavidin-HRP Western blot of elution profiles” value was “concentration and optically dependent proteome labeling profiles; also recorded: dose-response profiles”. In addition, the “number of proteins identified (from ≥2 unique peptides) with ≥2-fold enrichment versus DMSO” value (about 100 μM probe, 60 min incubation, 20 min irradiation (302 nm 1a, 320 nm 1b, 440 nm 2b)) is 523 proteins. Further, the “percentage of unique enriched proteins” value (comparison of proteome coverage of probes 1a, 1b, 2b at 100 μM) was “about 69%”. Besides, under “enrichment profiles with and without photoirradiation”, the “reactivity in the absence of photoirradiation” value is recorded as “thermal inertness”.
